pIC50: −log10 of the molar value.
Target: MAPK14 (human) (UniProt Q16539)
Test: Inhibtion of MAPK14 Kinase Activity

Sequence of MAPK14 (human) (Q16539 whole entry, looked up): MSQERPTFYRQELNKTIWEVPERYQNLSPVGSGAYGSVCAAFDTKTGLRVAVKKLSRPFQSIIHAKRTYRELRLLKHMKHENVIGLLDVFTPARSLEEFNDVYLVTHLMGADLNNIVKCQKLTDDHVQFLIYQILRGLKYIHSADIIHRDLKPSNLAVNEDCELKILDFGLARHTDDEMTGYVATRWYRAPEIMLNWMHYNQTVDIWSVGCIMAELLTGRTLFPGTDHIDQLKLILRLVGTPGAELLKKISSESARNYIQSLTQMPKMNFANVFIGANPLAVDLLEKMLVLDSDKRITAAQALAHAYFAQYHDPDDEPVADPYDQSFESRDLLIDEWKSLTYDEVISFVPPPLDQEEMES

Structure (SMILES)	pIC50
CC(C)C[C@H](NCc1ccc(-n2c(N)c(C(=O)c3ccc(F)cc3F)ccc2=O)cc1)C(=O)OC1CCCC1	> 7.00
Nc1c(C(=O)c2ccc(F)cc2F)ccc(=O)n1-c1c(F)cc(OCCCN[C@H](C(=O)OC2CCCC2)C2CCCCC2)cc1F	> 7.00
CC(C)C[C@H](NCCCCCOc1cc(F)c(-n2c(N)c(C(=O)c3ccc(F)cc3F)ccc2=O)c(F)c1)C(=O)OC1CCCC1	> 7.00
CC(C)C[C@H](NCCCOc1cc(F)c(-n2c(N)c(C(=O)c3ccc(F)cc3)ccc2=O)c(F)c1)C(=O)OC1CCCC1	> 7.00
CC(C)C[C@H](NCCCCCOc1cc(F)c(-n2c(N)c(C(=O)c3ccc(F)cc3F)ccc2=O)c(F)c1)C(=O)OC(C)(C)C	> 7.00
CC(C)C[C@H](NCCCOc1cc(F)c(-n2c(N)c(C(=O)c3ccc(F)cc3)ccc2=O)c(F)c1)C(=O)O	> 7.00
CC(C)C[C@H](NC1CCC(Oc2cc(F)c(-n3c(N)c(C(=O)c4ccc(F)cc4)ccc3=O)c(F)c2)CC1)C(=O)O (some centres not stated)	> 7.00
Cc1cc(C(=O)c2ccc(=O)n(-c3c(F)cc(OCCCN[C@H](C(=O)O)c4ccccc4)cc3F)c2N)ccc1F	> 7.00
Nc1c(C(=O)c2ccc(F)cc2)ccc(=O)n1-c1c(F)cc(OCCCN[C@@H](Cc2ccccc2)C(=O)O)cc1F	> 7.00
CC(C)C[C@H](NCc1cc(F)c(-n2c(N)c(C(=O)c3ccc(F)cc3F)ccc2=O)c(F)c1)C(=O)O	> 7.00
CC(C)C[C@H](NCCc1ccc(-n2c(N)c(C(=O)c3ccc(F)cc3F)ccc2=O)cc1)C(=O)O	> 7.00
Nc1c(C(=O)c2ccc(F)cc2)ccc(=O)n1-c1c(F)cc(CN[C@@H](Cc2ccccc2)C(=O)O)cc1F	> 7.00
Nc1c(C(=O)c2ccc(F)cc2)ccc(=O)n1-c1c(F)cc(OCCCN[C@H](C(=O)O)c2ccccc2)cc1F	> 7.00

The remaining lines, values ahead:

pIC50	Structure (SMILES)
> 7.00	CC(C)C[C@H](NCCCOc1ccc(-n2c(N)c(C(=O)c3ccc(F)cc3)ccc2=O)cc1)C(=O)OC1CCCC1
> 7.00	Nc1c(C(=O)c2ccc(F)cc2)ccc(=O)n1-c1c(F)cc(OCCCN[C@H](C(=O)OC2CCCC2)c2ccccc2)cc1F
> 7.00	Nc1c(C(=O)c2ccc(F)cc2F)ccc(=O)n1-c1ccc(OCCCN[C@H](C(=O)O)c2ccccc2)cc1
> 7.00	Cc1cc(C(=O)c2ccc(=O)n(-c3ccc(OCCCN[C@@H](Cc4ccccc4)C(=O)OC4CCCC4)cc3)c2N)ccc1F
> 7.00	Nc1c(C(=O)c2ccc(F)cc2F)ccc(=O)n1-c1c(F)cc(OCCCN[C@@H](Cc2ccccc2)C(=O)OC2CCCC2)cc1F
> 7.00	Cc1cc(C(=O)c2ccc(=O)n(-c3ccc(OCCCN[C@@H](CC(C)C)C(=O)O)cc3)c2N)ccc1F
> 7.00	Nc1c(C(=O)c2ccc(F)cc2)ccc(=O)n1-c1ccc(OCCCN[C@H](C(=O)OC2CCCC2)c2ccccc2)cc1
> 7.00	Cc1cc(C(=O)c2ccc(=O)n(-c3ccc(CN[C@@H](Cc4ccccc4)C(=O)O)cc3)c2N)ccc1F
> 7.00	CC(C)C[C@H](NCCCOc1ccc(-n2c(N)c(C(=O)c3ccc(F)cc3F)ccc2=O)cc1)C(=O)OC1CCCC1

Source: the Kinase Knowledgebase extract (Sharma et al. 2016)
